Target: T1, human neutrophil elastase (HNE) (Homo sapiens, UniProt P08246)
T1 construct: purchased Sigma E8140
T1 sequence (P08246 30-247 limits assumed): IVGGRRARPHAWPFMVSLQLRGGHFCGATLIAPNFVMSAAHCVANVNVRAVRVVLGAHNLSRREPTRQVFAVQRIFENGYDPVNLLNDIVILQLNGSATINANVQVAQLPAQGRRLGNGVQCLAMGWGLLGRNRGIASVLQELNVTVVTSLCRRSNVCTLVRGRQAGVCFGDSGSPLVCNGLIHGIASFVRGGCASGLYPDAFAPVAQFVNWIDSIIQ
Assay: HNE enzyme assay (human neutrophil elastase enzyme activity assay)
Type: biochemical
Settings: human leukocyte elastase 0.00072 U/mL; substrate MeOSuc-Ala-Ala-Pro-Val-AMC 100 μM; 25° C. for 30 minutes; at least two separate experiments; read-out: HNE inhibition (HNE enzyme inhibition, IC50 values)
Description: Compounds of the present invention were tested for potency in a human neutrophil elastase (HNE) enzyme activity assay.
Assays were performed in 96-well plates in a total assay volume of 100 μL. The final concentration of elastase enzyme (human leukocyte elastase, Sigma E8140) was 0.00072 U/mL. The peptide substrate (MeOSuc-Ala-Ala-Pro-Val-AMC, Calbiochem #324740) was used at a final concentration of 100 μM. The final concentration of DMSO was 1% in the assay buffer (0.05M Tris.HCl, 0.1M NaCl, 0.1M CaCl2, 0.0005% brij-35, pH 7.5). The enzymatic reaction was started by addition of the enzyme and incubated at 25° C. for 30 minutes. After incubation, the reaction was stopped by addition of soybean trypsin inhibitor (Sigma T9003) at a final concentration of 50 μg/well. Fluorescence was measured using a Molecular Devices fluorescence plate reader using 380 nm excitation and 460 nm emission wavelengths.
A dose response to each compound was performed and the effect of compound in each experiment was expressed as a percentage inhibition of the control enzyme fluorescence. Dose response curves were plotted and compound potency (IC50) was determined. Compounds were tested in at least two separate experiments.

| SMILES | IC50 |
| --- | --- |
| CN(CC1CC[N+](C)(C)CC1)C(=O)C(C)(C)NC(=O)c1c(-c2ccnn2-c2ccc(C#N)cc2)n(C)n(-c2cccc(C(F)(F)F)c2)c1=O [Example 40, 4-{[(2-{[2′-(4-Cyano-phenyl)-2-methyl-5-oxo-1-(3-trifluoromethyl-phenyl)-2,5-dihydro-1H,2′H-[3,3′]bipyrazolyl-4-carbonyl]-amino}-2-methyl-propionyl)-methyl-amino]-methyl}-1,1-dimethyl-piperidinium benzene sulphonate] | < 1 nM |
| Cn1c(-c2ccnn2-c2ccc(C#N)cc2)c(C(=O)N[C@H]2CC[C@H](C(=O)NCC[N+](C)(C)C)CC2)c(=O)n1-c1cccc(C(F)(F)F)c1 [Example 42, {2-[(Trans-4-{[2′-(4-cyano-phenyl)-2-methyl-5-oxo-1-(3-trifluoromethyl-phenyl)-2,5-dihydro-1H,2′H-[3,3′]bipyrazolyl-4-carbonyl]-amino}-cyclohexanecarbonyl)-amino]-ethyl}-trimethyl-ammonium benzene sulphonate] | < 1 nM |
| C[C@H](NC(=O)c1c(-c2ccnn2-c2ccc(C#N)cc2)n(C)n(-c2cccc(C(F)(F)F)c2)c1=O)C(=O)N(C)CC[N+](C)(C)C [Example 44, {2-[((S)-2-{[2′-(4-Cyano-phenyl)-2-methyl-5-oxo-1-(3-trifluoromethyl-phenyl)-2,5-dihydro-1H,2′H-[3,3′]bipyrazolyl-4-carbonyl]-amino}-propionyl)-methyl-amino]-ethyl}-trimethyl-ammonium benzene sulphonate] | < 1 nM |
| Cc1cc(C[N+](C)(C)C[C@H]2CC[C@H](NC(=O)c3c(-c4ccnn4-c4ccc(C#N)cc4)n(C)n(-c4cccc(C(F)(F)F)c4)c3=O)CC2)n(C)n1 [Example 46, (Trans-4-{[2′-(4-cyano-phenyl)-2-methyl-5-oxo-1-(3-trifluoromethyl-phenyl)-2,5-dihydro-1H,2′H-[3,3′]bipyrazolyl-4-carbonyl]-amino}-cyclohexylmethyl)-(2,5-dimethyl-2H-pyrazol-3-ylmethyl)-dimethyl-ammonium bromide] | < 1 nM |

Results, then the molecule that gave them:

| IC50 | SMILES |
| --- | --- |
| < 1 nM | Cn1c(-c2ccnn2-c2ccc(C#N)cc2)c(C(=O)NC2CCN(C(=O)C3CC[N+](C)(C)CC3)CC2)c(=O)n1-c1cccc(C(F)(F)F)c1 [Example 39, 4-(4-{[2′-(4-Cyano-phenyl)-2-methyl-5-oxo-1-(3-trifluoromethyl-phenyl)-2,5-dihydro-1H,2′H-[3,3′]bipyrazolyl-4-carbonyl]-amino}-piperidine-1-carbonyl)-1,1-dimethyl-piperidinium benzene sulphonate] |
| < 1 nM | C[C@H](NC(=O)c1c(-c2ccnn2-c2ccc(C#N)cc2)n(C)n(-c2cccc(C(F)(F)F)c2)c1=O)C(=O)N1CCC([N+](C)(C)C)CC1 [Example 41, [1-((S)-2-{[2′-(4-Cyano-phenyl)-2-methyl-5-oxo-1-(3-trifluoromethyl-phenyl)-2,5-dihydro-1H,2′H-[3,3′]bipyrazolyl-4-carbonyl]-amino}-propionyl)-piperidin-4-yl]-trimethyl-ammonium benzene sulphonate] |
| < 1 nM | Cn1c(-c2ccnn2-c2ccc(C#N)cc2)c(C(=O)NC2CCN(C(=O)C[N+](C)(C)Cc3ccccc3)CC2)c(=O)n1-c1cccc(C(F)(F)F)c1 [Example 43, Benzyl-[2-(4-{[2′-(4-cyano-phenyl)-2-methyl-5-oxo-1-(3-trifluoromethyl-phenyl)-2,5-dihydro-1H,2′H-[3,3′]bipyrazolyl-4-carbonyl]-amino}-piperidin-1-yl)-2-oxo-ethyl]-dimethyl-ammonium bromide] |
| < 1 nM | Cn1c(-c2ccnn2-c2ccc(C#N)cc2)c(C(=O)N[C@H]2CC[C@H](NC(=O)C[N+](C)(C)C)CC2)c(=O)n1-c1cccc(C(F)(F)F)c1 [Example 45, [(Trans-4-{[2′-(4-cyano-phenyl)-2-methyl-5-oxo-1-(3-trifluoromethyl-phenyl)-2,5-dihydro-1H,2′H-[3,3′]bipyrazolyl-4-carbonyl]-amino}-cyclohexylcarbamoyl)-methyl]-trimethyl-ammonium benzene sulphonate] |

Source: US10172830B2, “Pyrazolone compounds having human neutrophil elastase inhibitory properties” (CHIESI FARMACEUTICI S.P.A., priority 2016, dated 2019)
